Read-outs that look alike come from different tables or passages of the source.
Assays:
[1] = test system: wild type HIV strain IIIB; assay: Cellular anti-HIV assay in MT4 LTR-EGFP cells (GFP fluorescence), strain IIIB; cytotoxicity in mock-infected MT4 CMV-EGFP cells for the selectivity index; type: cell-based, HIV-1; conditions: for EC50: read-out: IIIB (pEC50) (converted)
Method: (§1) The antiviral activity of the compound of the present invention has been evaluated in the presence of wild type HIV and HIV mutants bearing mutations at the reverse transcriptase gene. The activity of the compounds is evaluated using a cellular assay which was performed according to the following procedure.
(§2) The human T-cell line MT4 is engineered with Green Fluorescent Protein (GFP) and an HIV-specific promoter, HIV-1 long terminal repeat (LTR). This cell line is designated MT4 LTR-EGFP, and can be used for the in vitro evaluation of anti-HIV activity of investigational compounds. In HIV-1 infected cells, the Tat protein is produced which upregulates the LTR promotor and finally leads to stimulation of the GFP reporter production, allowing to measure ongoing HIV-infection fluorometrically.
Analogously, MT4 cells are engineered with GFP and the constitutional cytomegalovirus (CMV) promotor. This cell line is designated MT4 CMV-EGFP, and can be used for the in vitro evaluation of cytotoxicity of investigational compounds. In this cell line, GFP levels are comparably to those of infected MT4 LTR-EGFP cells. Cytotoxic investigational compounds reduce GFP levels of mock-infected MT4 CMV-EGFP cells.
(§3) Effective concentration values such as 50% effective concentration (EC50) can be determined and are usually expressed in μM. An EC50 value is defined as the concentration of test compound that reduces the fluorescence of HIV-infected cells by 50%. The 50% cytotoxic concentration (CC50 in μM) is defined as the concentration of test compound that reduces fluorescence of the mock-infected cells by 50%. The ratio of CC50 to EC50 is defined as the selectivity index (SI) and is an indication of the selectivity of the anti-HIV activity of the inhibitor. The ultimate monitoring of HIV-1 infection and cytotoxicity is done using a scanning microscope. Image analysis allows very sensitive detection of viral infection. Measurements are done before cell necrosis, which usually takes place about five days after infection, in particular measurements are performed three days after infection.
(§4) The columns IIIB, L100I, etc. in the table list the pEC50 values against various strains IIIB, L100I, etc.
Strain IIIB is wild type HIV strain.

[2] = test system: HIV mutant strain L100I + K103N; assay: microbe, parasite or virus in culture; type: cell-based, HIV-1; conditions: MT4 LTR-EGFP cells, measured three days after infection; for EC50: Human immunodeficiency virus 1, 72 h, read-out: L100I + K103N (pEC50), strain L100I + K103N (converted); for L100I + K103N (pEC50): strain L100I + K103N
Method: as §1, §2, §3, §4

[3] = test system: HIV mutant strain K103N + Y181C; assay: microbe, parasite or virus in culture; type: cell-based, HIV-1; conditions: MT4 LTR-EGFP cells, measured three days after infection; for EC50: Human immunodeficiency virus 1, 72 h, read-out: K103N + Y181C (pEC50), strain K103N + Y181C (converted); for K103N + Y181C (pEC50): strain K103N + Y181C
Method: as §1, §2, §3, §4

HIV mutant strain Y181C = assay: microbe, parasite or virus in culture; type: cell-based, HIV-1; conditions: MT4 LTR-EGFP cells, measured three days after infection; for EC50: Human immunodeficiency virus 1, 72 h, read-out: Y181C (pEC50), strain Y181C (converted); for Y181C (pEC50): strain Y181C
Method: as §1, §2, §3, §4

[4] = test system: HIV strain MDR (mutations L100I, K103N, Y181C, E138G, V1791, L2214F, V278V/I and A327A/V in HIV reverse transcriptase); assay: microbe, parasite or virus in culture; type: cell-based, HIV-1; conditions: MT4 LTR-EGFP cells, measured three days after infection; for EC50: Human immunodeficiency virus 1, 72 h, read-out: MDR (pEC50), MDR strain (converted); for MDR (pEC50): MDR strain
Method: as §1, §2, §3, §4
“MDR” refers to a strain that contains mutations L100I, K103N, Y181C, E138G, V1791, L2214F, V278V/I and A327A/V in HIV reverse transcriptase.

[5] = Human immunodeficiency virus 1, IIIB, 72 h, wild type HIV strain IIIB, MT4 LTR-EGFP cells, measured three days after infection
[6] = wild type HIV strain IIIB, MT4 LTR-EGFP cells, measured three days after infection

SMILES | EC50 ([1]; Human immunodeficiency virus 1, 72 h, wild type HIV strain IIIB, MT4 LTR-EGFP cells, measured three days after infection) [nM] | EC50 [2] [nM] | EC50 [3] [nM] | EC50 (HIV mutant strain Y181C) [nM] | EC50 [4] [nM] | melting point [°C] | EC50 [1, 5] [nM] | IIIB (pEC50) [1, 6] | L100I + K103N (pEC50) [2] | K103N + Y181C (pEC50) [3] | Y181C (pEC50) (HIV mutant strain Y181C) | MDR (pEC50) [4] | IIIB (pEC50) [1]
Cc1cc(/C=C/C#N)cc(C)c1Nc1nc(Nc2ccc(C#N)cc2)ncc1C(O)c1ccccn1 (centres unmarked) [Compound 2] | 3.47 | 3.47 | 3.24 | 8.51 | 813 | 244 | – | – | – | – | – | – | –
Cc1cc(/C=C/C#N)cc(C)c1Nc1nc(Nc2ccc(C#N)cc2)ncc1C(O)(c1nccs1)c1nccs1 [Compound 21] | – | 23.4 | 85.1 | 56.2 | 3310 | – | 18.2 | – | – | – | – | – | –
Cc1cc(/C=C/C#N)cc(C)c1Nc1nc(Nc2ccc(C#N)cc2)ncc1C(O)C#Cc1cncn1C (centres unmarked) [Compound 13] | – | 63.1 | 38.9 | 19.5 | 537 | – | 3.63 | – | – | – | – | – | –
Cc1cc(/C=C/C#N)cc(C)c1Nc1nc(Nc2ccc(C#N)cc2)ncc1C(O)c1nc2ccccc2s1 (centres unmarked) [Compound 14] | – | 70.8 | 100 | 75.9 | 6310 | – | 12.6 | – | – | – | – | – | –
Cc1cc(/C=C/C#N)cc(C)c1Nc1nc(Nc2ccc(C#N)cc2)ncc1C(O)c1csc2nc(Cl)cn12 (centres unmarked) [Compound 18] | – | 30.9 | 107 | 79.4 | 2190 | – | 18.2 | – | – | – | – | – | –
Cc1cc(/C=C/C#N)cc(C)c1Nc1nc(Nc2ccc(C#N)cc2)ncc1C(O)c1scnc1Br (centres unmarked) [Compound 15] | – | 7.76 | 18.2 | 17.8 | 468 | – | 6.76 | – | – | – | – | – | –
Cc1cc(/C=C/C#N)cc(C)c1Nc1nc(Nc2ccc(C#N)cc2)ncc1C(C)(O)c1nccs1 (centres unmarked) [Compound 25] | – | – | – | – | – | – | – | 7.75 | 7.85 | 7.62 | 7.74 | 6.40 | –
Cc1cc(/C=C/C#N)cc(C)c1Nc1nc(Nc2ccc(C#N)cc2)ncc1C(O)c1nccn1C (centres unmarked) [Compound 11] | – | 3.72 | 7.24 | 6.03 | 832 | – | 2.57 | – | – | – | – | – | –
Cc1csc(C(O)c2cnc(Nc3ccc(C#N)cc3)nc2Nc2c(C)cc(/C=C/C#N)cc2C)n1 (centres unmarked) [Compound 8] | – | 4.27 | 9.55 | 14.5 | 209 | – | 3.89 | – | – | – | – | – | –
Cc1cc(/C=C/C#N)cc(C)c1Nc1nc(Nc2ccc(C#N)cc2)ncc1C(O)c1cccnc1 (centres unmarked) [Compound 4] | – | 3.47 | 5.75 | 5.37 | 355 | – | 1.78 | – | – | – | – | – | –
CCC(O)(c1nccs1)c1cnc(Nc2ccc(C#N)cc2)nc1Nc1c(C)cc(/C=C/C#N)cc1C (centres unmarked) [Compound 22] | – | – | – | – | – | – | – | 7.75 | 7.51 | 7.03 | 7.21 | 5.66 | –
Cc1cc(/C=C/C#N)cc(C)c1Nc1nc(Nc2ccc(C#N)cc2)ncc1C(O)c1cncs1 (centres unmarked) [Compound 10] | – | 2.63 | 4.07 | 3.8 | 145 | – | 3.02 | – | – | – | – | – | –
C=CC(O)c1cnc(Nc2ccc(C#N)cc2)nc1Nc1c(C)cc(/C=C/C#N)cc1C (centres unmarked) [Compound 12] | – | – | – | – | – | – | – | 8.91 | 8.86 | 8.38 | 8.44 | 6.37 | –
Cc1cc(/C=C/C#N)cc(C)c1Nc1nc(Nc2ccc(C#N)cc2)ncc1C(O)c1cn2ccnc2s1 (centres unmarked) [Compound 16] | – | 63.1 | 95.5 | 89.1 | 7240 | – | 25.1 | – | – | – | – | – | –
Cc1cc(/C=C/C#N)cc(C)c1Nc1nc(Nc2ccc(C#N)cc2)ncc1C(O)(c1nccs1)C(C)C (centres unmarked) [Compound 26] | – | – | – | – | – | – | – | 7.00 | 6.33 | 6.24 | 6.66 | 5.12 | –
C=CC(O)(c1nccs1)c1cnc(Nc2ccc(C#N)cc2)nc1Nc1c(C)cc(/C=C/C#N)cc1C (centres unmarked) [Compound 27] | – | – | – | – | – | – | – | – | 7.84 | 7.54 | 7.70 | 6.27 | 7.70
Cc1cnc(C(O)c2cnc(Nc3ccc(C#N)cc3)nc2Nc2c(C)cc(/C=C/C#N)cc2C)s1 (centres unmarked) [Compound 7] | – | 14.8 | 47.9 | 21.4 | 1620 | – | 11.5 | – | – | – | – | – | –
Cc1cc(/C=C/C#N)cc(C)c1Nc1nc(Nc2ccc(C#N)cc2)ncc1C(O)C1CCCC1 (centres unmarked) [Compound 9] | – | 158 | 759 | 245 | 6610 | – | 17 | – | – | – | – | – | –
Cc1csc(CC(O)c2cnc(Nc3ccc(C#N)cc3)nc2Nc2c(C)cc(/C=C/C#N)cc2C)n1 (centres unmarked) [Compound 6] | – | 18.6 | 95.5 | 24.5 | 2240 | – | 3.72 | – | – | – | – | – | –
COc1ccccc1C(O)c1cnc(Nc2ccc(C#N)cc2)nc1Nc1c(C)cc(/C=C/C#N)cc1C (centres unmarked) [Compound 5] | – | 8.51 | 18.6 | 8.51 | 646 | – | 4.07 | – | – | – | – | – | –

— patent US8163745B2, “HIV inhibiting 5-(hydroxymethylene and aminomethylene) substituted pyrimidines” (Tibotec Pharmaceuticals Ltd., priority 2006, dated 2012)
